From patent US8501440B2 (Case Western Reserve University, priority 2006, dated 2013)
“Also recorded” adds a separate entry of the source.

How the values were obtained:
[1] = system: human breast cancer cell line MCF-7; assay: Mitogenicity in cell culture (cell growth, DNA content); format: cell-based; conditions: MCF-7, 3-days exposure, cell number and DNA content
Description: Growth media were supplemented with 10% fetal bovine serum (FBS) (Invitrogen Life Technologies, Inc., Carlsbad, AA), penicillin (100 U/ml) and streptomycin (100 ug/mL). Approximately 1.0×10^5 cells were seeded into 35-mm dishes and cultured until subconfluent. Two assays were employed: (i) Cell-growth curves were determined by hemocytometry. Approximately 5×10^4 were seeded into a 24-well plate and cultured for 24 h. After 24 hour, the medium was removed and replaced with fresh medium containing 0.1% BSA. […] Cell numbers were determined after 3-days exposure to the hormones. (ii) Cell DNA content was determined using a DNA measurement kit (Invitrogen) following 3-days exposure to the hormones in cell culture as above.

diabetic Lewis rats = assay: Blood glucose lowering in streptozotocin-diabetic rats; format: in vivo, rat; conditions: streptozotocin-diabetic male Lewis rats, 1.5 U/kg subcutaneously, 0-90 min
Description: Male Lewis rats (˜250 g body weight) were rendered diabetic with streptozotocin. […] Rats were injected subcutaneously at time=0 with 1.5 U/kg body weight in 100 μl of diluent. Blood was obtained from clipped tip of the tail at time 0 and every 10 minutes up to 90 min. Blood glucose was measured using a Hypoguard Advance Micro-Draw meter.

[2] = target: T1, Insulin-like Growth Factor receptor (IGFR) (Homo sapiens, UniProt P08069); assay: IGFR binding assay (microtiter plate antibody assay); conditions: relative to IGF-1
T1 construct: expressed in transfected cells; host or cells: PEAK rapid cells, transient transfection, Triton X-100 lysate
T1 sequence (P08069 31-736 limits assumed): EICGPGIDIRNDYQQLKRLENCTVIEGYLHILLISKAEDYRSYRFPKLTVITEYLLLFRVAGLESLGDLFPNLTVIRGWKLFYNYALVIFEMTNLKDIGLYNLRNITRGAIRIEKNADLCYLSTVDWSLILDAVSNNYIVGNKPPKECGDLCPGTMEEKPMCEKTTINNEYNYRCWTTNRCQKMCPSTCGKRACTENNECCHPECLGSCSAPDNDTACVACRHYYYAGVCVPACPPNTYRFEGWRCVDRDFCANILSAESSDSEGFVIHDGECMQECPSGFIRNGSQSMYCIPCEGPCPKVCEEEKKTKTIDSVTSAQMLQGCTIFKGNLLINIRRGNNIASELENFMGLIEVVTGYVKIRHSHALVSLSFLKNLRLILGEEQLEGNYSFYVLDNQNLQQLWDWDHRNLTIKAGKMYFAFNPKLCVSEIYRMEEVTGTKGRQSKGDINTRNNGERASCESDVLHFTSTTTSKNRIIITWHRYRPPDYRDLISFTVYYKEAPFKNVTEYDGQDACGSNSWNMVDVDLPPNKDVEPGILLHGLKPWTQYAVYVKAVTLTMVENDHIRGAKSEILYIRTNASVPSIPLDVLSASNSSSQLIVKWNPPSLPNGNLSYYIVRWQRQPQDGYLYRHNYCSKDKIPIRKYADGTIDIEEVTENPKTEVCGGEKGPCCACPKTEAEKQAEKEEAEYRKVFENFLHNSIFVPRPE
T1 sequence (P08069 741-1367 partner limits assumed): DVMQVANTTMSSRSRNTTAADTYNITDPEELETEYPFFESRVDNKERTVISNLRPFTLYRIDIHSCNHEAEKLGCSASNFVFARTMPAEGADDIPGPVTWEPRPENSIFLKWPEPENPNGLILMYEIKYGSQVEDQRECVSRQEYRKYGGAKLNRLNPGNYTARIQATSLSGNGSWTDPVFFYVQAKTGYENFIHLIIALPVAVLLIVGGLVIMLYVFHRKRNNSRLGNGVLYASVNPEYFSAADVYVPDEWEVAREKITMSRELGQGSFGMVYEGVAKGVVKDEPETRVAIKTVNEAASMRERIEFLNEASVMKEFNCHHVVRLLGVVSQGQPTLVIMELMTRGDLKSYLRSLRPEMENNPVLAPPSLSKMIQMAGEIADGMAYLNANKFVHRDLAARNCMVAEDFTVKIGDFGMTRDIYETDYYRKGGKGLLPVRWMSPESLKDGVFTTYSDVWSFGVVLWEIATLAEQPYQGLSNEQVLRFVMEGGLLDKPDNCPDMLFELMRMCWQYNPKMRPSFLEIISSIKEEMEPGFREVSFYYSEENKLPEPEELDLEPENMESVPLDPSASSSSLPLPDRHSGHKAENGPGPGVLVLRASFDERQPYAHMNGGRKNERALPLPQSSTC
Description: Receptor-Binding Assays. […] Subsequent to incubation, mixtures are diluted with 1 ml of ice-cold buffer and centrifuged (10,000 g) for 5 min at 4° C. The supernatant will then be removed by aspiration, and the membrane pellet counted for radioactivity. […] Binding data were analyzed by a two-site sequential model. A corresponding microtiter plate antibody assay using the IGF Type I receptor was employed to assess cross-binding to this homologous receptor.
DNA for transfection was prepared according to the method of Mynarcik et al. (J. Biol. Chem., 1997, 272, pp 18650-18655). The receptor cDNAs were expressed transiently in PEAK rapid cells using polyethyleneimine. Cells were harvested by lysis in 0.15M NaCl and 0.1M Tris (pH 8) containing 1% (v/v) Triton X-100 and protease inhibitor cocktail three days post-transfection. Lysates were stored at −80° C. until assay. Receptor-binding assays were performed as described by Mynarcik. Microtiter strip plates (Nunc Maxisorb) were incubated overnight at 4° C. with anti-FLAG IgG ([…] of a […] solution in PBS). […] Binding data were analyzed by a two-site sequential model with homologous or heterologous labeled and unlabeled ligands to obtain dissociation constants as described by Whittaker et al. (J. Biol. Chem., 2001, 276, pp 43980-43986).

[3] = Fibrillation assay (thioflavin T fluorescence); format: physicochemical; conditions: zinc free, 60 μM, pH 7.4, 37° C., tilting table
Description: Samples (in triplicate) were placed in sealed glass vials and placed on an automated tilting table at 37° C. At successive times aliquots were withdrawn and analyzed by a thioflavin T (ThT) fluorescence spectroscopy assay to determine the onset of fibrillation as follows.
Thioflavin T (ThT) was made 1 mM in double-distilled water and stored at 4° C. in the dark. To monitor fibrillation, 10-μl aliquots of samples were obtained at indicated time points and were mixed with 3 ml of ThT assay buffer (5 μM ThT in 50 mM Tris-HCl (pH 7.5) and 100 mM NaCl). Fluorescence measurements were performed using an Aviv spectrofluorometer in 1-cm quartz cuvettes. Emission spectra were collected from 470 to 500 nm following excitation at 450 nm; the integration time was 1 s. ThT in buffer without protein was used as baseline. The fibrillation lag time is defined as the time required to observe twofold enhancement in ThT emission. The threshold of twofold-enhanced ThT fluorescence is followed a rapid increase in turbidity associated with elongation of mature fibrils and a further increase in ThT fluorescence.

[4] = Thermodynamic stability by guanidine denaturation; format: physicochemical; conditions: 37° C. and pH 7.4
Description: Circular Dichroism—Samples were dissolved in either 10 mM phosphate and 100 mM KCl (pH 7.4) or 0.01 N HCl (pH 2.0) at a protein concentration of 25 μM. To remove particulate matter and protein aggregates, samples were filtered ([…]; Satorius, Goetlingen, Germany). Spectra, acquired with an Aviv spectropolarimeter (Aviv Biomedical, Inc., Lakewood, N.J.), were normalized. […]

Row | Substance | mitogenicity ([1]; listed as 57 mer single-chain insulin analogue) | rate of decrease of blood glucose concentration (diabetic Lewis rats) | IGFR Relative Affinity [2] | Lag time (days ± 10%) [3] | ΔGu [4] | mitogenicity [1]
1 | 57mer single-chain analogue: 57-mer single-chain insulin, SEQ ID NO: 26; His^A8, Asp^B10, Asp^B28, Pro^B29 substitutions; six-residue linker GGGPRR between B30 and A1 | indistinguishable from human insulin; also recorded: significantly less mitogenic than IGF-I | 62.0±16.3 mg/dL per h | – | – | – | –
2 | IGF-I | – | – | 1 | – | – | –
3 | Corresponding two-chain analogue: two-chain insulin analogue with His^A8, Asp^B10, Asp^B28, Pro^B29 substitutions; SEQ ID NOS: 28 and 29 | – | 53.2±11.7 mg/dL per h | – | 70 ± 5 days | 3.6 kcal/mol | intermediate between the single-chain insulin analogue
